The structures appear in SMILES notation.

This assay has as its target T1, His6-PDK1 (aa 52-556) (Homo sapiens, UniProt O15530).
T1 construct: 15 μL His6-PDK1 (aa 52-556) 3.33 ng/well); host or cells: baculovirus-infected insect cells
T1 sequence (O15530 52-556): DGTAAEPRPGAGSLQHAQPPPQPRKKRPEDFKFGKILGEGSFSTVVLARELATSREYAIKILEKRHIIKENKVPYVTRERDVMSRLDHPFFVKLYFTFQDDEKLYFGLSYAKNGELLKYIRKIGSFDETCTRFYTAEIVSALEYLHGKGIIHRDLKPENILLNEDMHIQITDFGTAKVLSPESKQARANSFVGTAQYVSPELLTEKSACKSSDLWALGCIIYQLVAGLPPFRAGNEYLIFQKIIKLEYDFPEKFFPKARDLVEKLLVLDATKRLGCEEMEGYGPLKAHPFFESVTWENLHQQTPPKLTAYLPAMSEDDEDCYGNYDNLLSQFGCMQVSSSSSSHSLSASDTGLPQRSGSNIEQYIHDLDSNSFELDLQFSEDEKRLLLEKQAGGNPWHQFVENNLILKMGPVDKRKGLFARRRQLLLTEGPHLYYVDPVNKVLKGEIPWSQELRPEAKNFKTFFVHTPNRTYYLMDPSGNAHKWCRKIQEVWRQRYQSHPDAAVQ
As to the kind of experiment: PDK1 kinase assay III (with Tween 20). Format: biochemical. Particulars: compound at 10 μM; PDK1 kinase assay III (values without asterisk); read-out: % CTL (residual activity of the enzyme relative to DMSO control). The method in brief: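 Started with ATP, incubated 90 min at ambient temperature, then stopped with phosphoric acid. Asterisked values come from assay II (24 h or 5 min incubation).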
With `Cc1c(C(=O)NCC#Cc2ccc3nc(Nc4ccc(C(=O)NC5CCN(C)CC5)cc4)ncc3c2)c(=O)n(Cc2ccc(F)c(F)c2)n1C`, the remaining activity at 10 µM came to 11.6%.
The value for `O=C1Nc2cc(/C=C/CNC(=O)c3cccc(Nc4ccc(F)c(F)c4)n3)ccc2/C1=C/c1cnc[nH]1` [I-20, 6-[(3,4-difluorophenyl)amino]-N-{(2E)-3-[(3Z)-3-(1H-imidazol-5-ylmethylidene)-2-oxo-2,3-dihydro-1H-indol-6-yl]prop-2-en-1-yl}pyridine-2-carboxamide] was 42.7%.
As for `Cc1c(C(=O)NCC#Cc2ccc3nc(Nc4ccc(C(=O)NCCCO)cc4)ncc3c2)c(=O)n(Cc2ccc(F)c(F)c2)n1C`, the remaining activity at 10 µM was found to be 15.2%.
Then `O=C1Nc2cc(/C=C/CNC(=O)c3ccnn(Cc4ccc(F)c(F)c4)c3=O)ccc2/C1=C/c1cnc[nH]1` [I-6, 2-(3,4-difluorobenzyl)-N-{(2E)-3-[(3Z)-3-(1H-imidazol-5-ylmethylidene)-2-oxo-2,3-dihydro-1H-indol-6-yl]prop-2-en-1-yl}-3-oxo-2,3-dihydropyridazine-4-carboxamide], with 17.5%; and `Cc1c(C(=O)NCC#Cc2ccc3nc(Nc4ccc(C(=O)NC5CCN(C)CC5)c(F)c4)ncc3c2)c(=O)n(Cc2ccc(F)c(F)c2)n1C`, with 11%; and `CC1CCC(NC(=O)c2ccc(Nc3ncc4cc(C#CCNC(=O)c5cncn(Cc6ccc(F)c(F)c6)c5=O)ccc4n3)cc2)CC1` (stereo not shown), with 19.7%.
Then `CN(C)Cc1ccc(Nc2ncc3cc(C#CCNC(=O)c4cc(Cl)nn(Cc5ccc(F)c(F)c5)c4=O)ccc3n2)cc1` [III-37, 6-chloro-2(3,4-difluorobenzyl)-N-{3-[2-({4-[(dimethylamino)methyl]phenyl}-amino)quinazolin-6-yl]prop-2-yn-1-yl}-3-oxo-2,3-dihydropyridazine-4-carboxamide], with 13.8%; and `CN1CCC(N(C)c2ccc(Nc3ncc4cc(C#CCNC(=O)c5nccn(Cc6ccc(F)c(F)c6)c5=O)ccc4n3)cc2)CC1` [III-34, 4-(3,4-difluorobenzyl)-N-{3-[2-({4-[methyl(1-methylpiperidin-4-yl)amino]phenyl}amino)quinazolin-6-yl]prop-2-yn-1-yl}-3-oxo-3,4-dihydropyrazine-2-carboxamide], with 10.7%; and `CN1CCC(NC(=O)c2ccc(Nc3ncc4cc(/C=C/CNC(=O)c5cncn(Cc6ccc(F)c(F)c6)c5=O)ccc4n3)cc2F)CC1`, with 19.7%.
Then `CN1CCC(Nc2ccc(Nc3ncc4cc(/C=C/CNC(=O)c5cn(C)c(=O)n(Cc6ccc(F)c(F)c6)c5=O)ccc4n3)cc2F)CC1` [IV-43, 3-(3,4-difluorobenzyl)-N-{(2E)-3-[2-({3-fluoro-4-[(1-methylpiperidin-4-yl)amino]-phenyl}amino)quinazolin-6-yl]prop-2-en-1-yl}-1-methyl-2,4-dioxo-1,2,3,4-tetrahydro-pyrimidine-5-carboxamide], with 17.3%.
For `O=C(NCCO)c1ccc(Nc2ncc3cc(C#CCNC(=O)c4cncn(Cc5ccc(F)c(F)c5)c4=O)ccc3n2)cc1` [III-115], the remaining activity at 10 µM came out at 13.5%.
The value for `CN1CCC(N(C)c2ccc(Nc3ncc4c(F)c(C#CCNC(=O)c5cncn(Cc6ccc(F)c(F)c6)c5=O)ccc4n3)cc2)CC1` [III-26, 1-(3,4-difluorobenzyl)-N-{3-[5-fluoro-2-({4-[methyl(1-methylpiperidin-4-yl)amino]phenyl}amino)quinazolin-6-yl]prop-2-yn-1-yl}-6-oxo-1,6-dihydropyrimidine-5-carboxamide] was 12.4%; that for `Cc1c(C(=O)NCC#Cc2cc(OCCN)c3nc(Nc4ccc(N5CCOCC5)cc4)ncc3c2)c(=O)n(Cc2ccc(F)c(F)c2)n1C` was 13.8%.
With `Cc1c(C(=O)NC/C=C/c2ccc3nc(Nc4ccc(C(=O)N(C)C5CCN(C)CC5)c(Cl)c4)ncc3c2)c(=O)n(Cc2ccc(F)c(F)c2)n1C`, the remaining activity at 10 µM was determined as 15.8%.
The value for `Cc1c(C(=O)NC/C=C/c2ccc3nc(N)ncc3c2)c(=O)n(Cc2ccc(F)c(F)c2)n1C` was 23%; that for `CN(C)Cc1ccc(Nc2ncc3c(F)c(C#CCNC(=O)c4cncn(Cc5ccc(F)c(F)c5)c4=O)ccc3n2)cc1` [III-24, 1-(3,4-difluorobenzyl)-N-{3-[2-({4-[(dimethylamino)methyl]phenyl}amino)-5-fluoroquinazolin-6-yl]prop-2-yn-1-yl}-6-oxo-1,6-dihydropyrimidine-5-carboxamide] was 8.9%.
With `N#Cc1ccc(Nc2ncc3cc(C#CCNC(=O)c4cncn(Cc5ccc(F)c(F)c5)c4=O)ccc3n2)cc1` [III-44, N-(3-{2-[(4-cyanophenyl)amino]quinazolin-6-yl}prop-2-yn-1-yl)-1-(3,4-difluorobenzyl)-6-oxo-1,6-dihydropyrimidine-5-carboxamide], the remaining activity at 10 µM is 30.4%.
Then `Cc1nc[nH]c1/C=C1\C(=O)Nc2cc(/C=C/CNC(=O)c3cncn(Cc4ccc(F)c(F)c4)c3=O)cc(F)c21` [I-47, 1-(3,4-difluorobenzyl)-N-[(2E)-3-{(3Z)-4-fluoro-3-[(4-methyl-1H-imidazol-5-yl)methylidene]-2-oxo-2,3-dihydro-1H-indol-6-yl}prop-2-en-1-yl]-6-oxo-1,6-dihydropyrimidine-5-carboxamide], with 17.2%; and `CN(C)Cc1ccc(-c2cc3c(Nc4ccc(CNC(=O)c5cncn(Cc6ccc(F)c(F)c6)c5=O)cc4)ncnc3[nH]2)cc1` [IV-26, 1-(3,4-difluorobenzyl)-N-{4-[(6-{4-[(dimethylamino)methyl]phenyl}-7H-pyrrolo[2,3-d]pyrimidin-4-yl)amino]benzyl}-6-oxo-1,6-dihydropyrimidine-5-carboxamide], with 20.9%; and `O=C1Nc2cc(/C=C/CNC(=O)C3CCCN(Cc4ccc(F)c(F)c4)C3=O)ccc2/C1=C/c1cnc[nH]1` (stereo not shown) [I-9, 1-(3,4-difluorobenzyl)-N-{(2E)-3-[(3Z)-3-(1H-imidazol-5-ylmethylidene)-2-oxo-2,3-dihydro-1H-indol-6-yl]prop-2-en-1-yl}-2-oxopiperidine-3-carboxamide], with 25.7%.
`CN(C)CCNC(=O)c1ccc(Nc2ncc3cc(C#CCNC(=O)c4cncn(Cc5ccc(F)c(F)c5)c4=O)ccc3n2)cc1`: the remaining activity at 10 µM was found to be 18.5%.
The value for `Cc1c(C(=O)NCC#Cc2ccc3nc(Nc4ccc(NC5CCN(C)CC5)c(F)c4)ncc3c2)c(=O)n(Cc2ccc(F)c(F)c2)n1C` [III-32, 2-(3,4-difluorobenzyl)-N-{3-[2-({3-fluoro-4-[(1-methylpiperidin-4-yl)amino]phenyl}amino)quinazolin-6-yl]prop-2-yn-1-yl}-1,5-dimethyl-3-oxo-2,3-dihydro-1H-pyrazole-4-carboxamide] was 13.1%; that for `CN1CCC(N(C)c2ccc(Nc3ncc4cc(C#CCNC(=O)c5cc(Cl)nn(Cc6ccc(F)c(F)c6)c5=O)ccc4n3)cc2)CC1` [III-41, 6-chloro-2(3,4-difluorobenzyl)-N-{3-[2-({4-[methyl(1-methylpiperidin-4-yl)amino]phenyl}amino)quinazolin-6-yl]prop-2-yn-1-yl}-3-oxo-2,3-dihydropyridazine-4-carboxamide] was 12.7%.
The value for `Cc1c(C(=O)NC/C=C/c2cc(OCCN)c3nc(Nc4ccc(N5CCOCC5)cc4)ncc3c2)c(=O)n(Cc2ccc(F)c(F)c2)n1C` was 13%; that for `CN1CCC(Nc2ccc(Nc3ncc4cc(C#CCNC(=O)c5nccn(Cc6ccc(F)c(F)c6)c5=O)ccc4n3)cc2F)CC1` [III-35, 4-(3,4-difluorobenzyl)-N-{3-[2-({3-fluoro-4-[(1-methylpiperidin-4-yl)amino]-phenyl}amino)quinazolin-6-yl]prop-2-yn-1-yl}-3-oxo-3,4-dihydropyrazine-2-carboxamide] was 14.9%; that for `Nc1ncc2cc(C#CCNC(=O)c3cncn(Cc4ccc(F)c(F)c4)c3=O)ccc2n1` [III-42, N-[3-(2-aminoquinazolin-6-yl)prop-2-yn-1-yl]-1-(3,4-difluorobenzyl)-6-oxo-1,6-dihydropyrimidine-5-carboxamide] was 14.7%.
For `Cc1c(C#CCNC(=O)c2cncn(Cc3ccc(F)c(F)c3)c2=O)c(=O)n(C(C)C)c2nc(Nc3ccc(N4CCOCC4)cc3)ncc12` [III-29, 1-(3,4-difluorobenzyl)-N-{3-[5-methyl-2-{[4-(morpholin-4-yl)phenyl]amino}-7-oxo-8-(propane-2-yl)-7,8-dihydropyrido[2,3-d]pyrimidin-6-yl]prop-2-yn-1-yl}-6-oxo-1,6-dihydropyrimidine-5-carboxamide], the remaining activity at 10 µM stood at 16.4%.
Then `CC(/C=C/c1ccc2nc(Nc3ccc(CN(C)C)cc3)ncc2c1)NC(=O)c1cncn(Cc2ccc(F)c(F)c2)c1=O` (stereo not shown) [IV-32, 1-(3,4-difluorobenzyl)-N-{(3E)-4-[2-({4-[(dimethylamino)methyl]phenyl}amino)-quinazolin-6-yl]but-3-en-2-yl}-6-oxo-1,6-dihydropyrimidine-5-carboxamide], with 19%.
